Series [1] concerns the target T1, D(2) dopamine receptor (Homo sapiens, UniProt P14416). The series is described as follows: Displacement of [3H]N-methylspiperone from human D2 receptor expressed in HEKT cell membranes at 10 uM after 90 mins by microbeta scintillation counting method relative to control. The settings on record: HEKT cell membranes expressing human D2 receptor, probe [3H]N-methylspiperone. A general note: In a radioligand displacement assay an active substance lowers the binding of a labelled ligand.

Series [2] has as its target T2, D(3) dopamine receptor (Homo sapiens, UniProt P35462). The series can be described thus: Displacement of [3H]N-methylspiperone from human D3 receptor expressed in HEKT cell membranes at 10 uM after 90 mins by microbeta scintillation counting method relative to control.
In series [3] the target is T1, D(2) dopamine receptor. The series is described as follows: Displacement of [3H]N-methylspiperone from human D2 receptor expressed in HEKT cell membranes after 90 mins by microbeta scintillation counting method.
Series [4] addresses T2, D(3) dopamine receptor. The series can be described thus: Displacement of [3H]N-methylspiperone from human D3 receptor expressed in HEKT cell membranes after 90 mins by microbeta scintillation counting method.
Series [5] deals with T3, D(1A) dopamine receptor (Homo sapiens, UniProt P21728). The series can be described thus: Displacement of [3H]SCH23390 from human D1 receptor expressed in HEKT cell membranes at 10 uM after 90 mins by microbeta scintillation counting method relative to control.
The target of series [6] is T3, D(1A) dopamine receptor. The series is described as follows: Displacement of [3H]SCH23390 from human D1 receptor expressed in HEKT cell membranes after 90 mins by microbeta scintillation counting method.
Series [7] can be described thus: Antagonist activity at rhesus monkey D1 receptor expressed in HEK293 cells assessed as inhibition of dopamine-induced [35S]GTPgammaS binding. The format is cell-based, Macaca mulatta.
The target in series [8] is T2, D(3) dopamine receptor. The series is described as follows: Antagonist activity at human D3 receptor expressed in CHO cells assessed as inhibition of dopamine-induced [35S]GTPgammaS binding. The format is functional, cell-based.
Series [9] is described as follows: Selectivity index, ratio of Ki for human D2 receptor expressed in HEKT cell membranes to Ki for human D1 receptor expressed in HEKT cell membranes.

T1 sequence (P14416 whole entry): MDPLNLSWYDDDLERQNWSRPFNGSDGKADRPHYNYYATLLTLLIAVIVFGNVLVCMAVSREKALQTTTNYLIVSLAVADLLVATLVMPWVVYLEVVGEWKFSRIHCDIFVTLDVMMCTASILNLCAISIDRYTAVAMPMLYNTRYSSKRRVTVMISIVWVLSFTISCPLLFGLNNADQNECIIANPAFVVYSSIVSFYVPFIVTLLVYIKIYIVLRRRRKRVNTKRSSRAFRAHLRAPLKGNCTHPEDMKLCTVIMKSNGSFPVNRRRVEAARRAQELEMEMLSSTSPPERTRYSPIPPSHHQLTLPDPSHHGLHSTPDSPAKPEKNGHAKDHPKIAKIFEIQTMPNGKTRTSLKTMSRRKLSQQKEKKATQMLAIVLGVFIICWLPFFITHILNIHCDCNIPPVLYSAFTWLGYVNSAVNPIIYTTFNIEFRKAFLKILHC
T2 sequence (P35462 whole entry): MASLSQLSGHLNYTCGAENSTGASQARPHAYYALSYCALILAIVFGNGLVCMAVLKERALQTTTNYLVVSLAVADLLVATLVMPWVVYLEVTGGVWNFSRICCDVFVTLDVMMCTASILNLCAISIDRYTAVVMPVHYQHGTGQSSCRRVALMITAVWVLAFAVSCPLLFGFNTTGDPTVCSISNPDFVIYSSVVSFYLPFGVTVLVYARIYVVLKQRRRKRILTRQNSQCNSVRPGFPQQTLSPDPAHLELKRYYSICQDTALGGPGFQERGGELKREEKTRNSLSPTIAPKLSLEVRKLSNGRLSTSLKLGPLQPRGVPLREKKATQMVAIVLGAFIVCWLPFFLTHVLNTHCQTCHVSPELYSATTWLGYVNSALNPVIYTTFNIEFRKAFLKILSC
T3 sequence (P21728 whole entry): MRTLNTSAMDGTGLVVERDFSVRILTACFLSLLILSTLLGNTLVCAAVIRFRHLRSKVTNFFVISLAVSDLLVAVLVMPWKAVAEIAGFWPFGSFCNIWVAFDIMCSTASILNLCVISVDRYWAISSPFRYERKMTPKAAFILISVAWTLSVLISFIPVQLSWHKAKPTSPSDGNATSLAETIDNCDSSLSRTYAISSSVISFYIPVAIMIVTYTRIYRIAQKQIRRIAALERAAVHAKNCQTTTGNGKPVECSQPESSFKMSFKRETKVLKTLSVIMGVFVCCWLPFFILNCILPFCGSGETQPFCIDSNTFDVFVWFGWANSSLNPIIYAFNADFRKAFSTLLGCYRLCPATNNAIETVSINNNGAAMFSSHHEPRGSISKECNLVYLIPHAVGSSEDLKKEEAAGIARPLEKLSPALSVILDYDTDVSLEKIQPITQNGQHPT

Broadly, the inhibition is the change of the read-out against control, counted positive when it falls. One may read the Ki as a measure of affinity in units of concentration, obtained from inhibition or displacement. On to `CCCCCOc1c(O)ccc2c1CN1CCc3cc(OC)c(O)cc3[C@@H]1C2`, for which the inhibition at 1.5 h, 10 µM at D(2) dopamine receptor [1] was > 50%. The inhibition on D(3) dopamine receptor [2] is > 50%. Moreover, the Ki worked out at 23 nM on D(2) dopamine receptor [3] and 3210 nM on D(3) dopamine receptor [4].
As usually defined, the IC50 is the concentration at which inhibition is half-maximal. For `CCOc1c(O)ccc2c1CN1CCc3cc(OC)c(O)cc3[C@@H]1C2`, the inhibition at D(1A) dopamine receptor [5] and at D(3) dopamine receptor [2] was > 50% in each case. In addition, the inhibition at 1.5 h, 10 µM at D(2) dopamine receptor [1] was < 50%. Besides, the Ki on D(1A) dopamine receptor [6] turned out to be 5.3 nM; at D(3) dopamine receptor [4] it was 106 nM. For the same compound, the IC50 in series [7] is 416 nM. The Ke on D(3) dopamine receptor [8] was found to be 3.15 nM.
Turning to `CCCCCCOc1c(O)ccc2c1CN1CCc3cc(OC)c(O)cc3[C@@H]1C2`, the inhibition on D(1A) dopamine receptor [5] and on D(3) dopamine receptor [2] was > 50% in each case. Also, the inhibition at 1.5 h, 10 µM on D(2) dopamine receptor [1] was < 50%. The values for the Ki at D(1A) dopamine receptor [6] and on D(3) dopamine receptor [4] were 77 nM and 195 nM, respectively.
In the case of `CCCCCOc1c(O)cc(Br)c2c1CN1CCc3cc(OC)c(O)cc3[C@@H]1C2`, the inhibition at D(1A) dopamine receptor [5] and on D(3) dopamine receptor [2] was > 50% throughout. Besides, the inhibition at 1.5 h, 10 µM at D(2) dopamine receptor [1] was > 50%. Besides, the Ki at D(1A) dopamine receptor [6] amounted to 32 nM; at D(2) dopamine receptor [3], 398 nM.
Take `COCCOc1c(O)cc(Br)c2c1CN1CCc3cc(OC)c(O)cc3[C@@H]1C2`: the inhibition on D(1A) dopamine receptor [5] and at D(3) dopamine receptor [2] was > 50% each time. For the same compound, the inhibition at 1.5 h, 10 µM at D(2) dopamine receptor [1] was < 50%. The Ki came out at 4.2 nM at D(1A) dopamine receptor [6] and 726 nM on D(3) dopamine receptor [4].
For `CCC(C)Oc1c(O)cc(Br)c2c1CN1CCc3cc(OC)c(O)cc3[C@@H]1C2` (some centres undefined), the inhibition on D(1A) dopamine receptor [5] and at D(3) dopamine receptor [2] was > 50% each time. For the same compound, the inhibition at 1.5 h, 10 µM at D(2) dopamine receptor [1] is > 50%. The Ki was 9.7 nM at D(1A) dopamine receptor [6], 331 nM at D(2) dopamine receptor [3] and 2070 nM at D(3) dopamine receptor [4].
As for `CCC(C)Oc1c(O)ccc2c1CN1CCc3cc(OC)c(O)cc3[C@@H]1C2` (some centres undefined), the inhibition at 1.5 h, 10 µM at D(2) dopamine receptor [1] is > 50%. Moreover, the Ki on D(1A) dopamine receptor [6] is 65 nM; on D(2) dopamine receptor [3], 104 nM.
Regarding `CCOc1c(O)cc(Br)c2c1CN1CCc3cc(OC)c(O)cc3[C@@H]1C2`, the inhibition on D(1A) dopamine receptor [5] and on D(3) dopamine receptor [2] was > 50% in each case. The inhibition at 1.5 h, 10 µM at D(2) dopamine receptor [1] was < 50%. Besides, the inhibition constant Ki on D(1A) dopamine receptor [6] came out at 1.3 nM; on D(3) dopamine receptor [4], 373 nM. The “Ratio Ki” value in [9] is listed as >10.
Regarding `COCCOc1c(O)ccc2c1CN1CCc3cc(OC)c(O)cc3[C@@H]1C2`, the inhibition on D(1A) dopamine receptor [5] and on D(3) dopamine receptor [2] was > 50% in each case. In addition, the inhibition at 1.5 h, 10 µM on D(2) dopamine receptor [1] is > 50%. In addition, the Ki on D(1A) dopamine receptor [6] was found to be 7.7 nM; on D(2) dopamine receptor [3], 18 nM.
Take `CCCOc1c(O)ccc2c1CN1CCc3cc(OC)c(O)cc3[C@@H]1C2`: the inhibition on D(1A) dopamine receptor [5] and on D(3) dopamine receptor [2] was > 50% each time. In addition, the inhibition at 1.5 h, 10 µM at D(2) dopamine receptor [1] was > 50%. The Ki came to 12 nM on D(1A) dopamine receptor [6], 41 nM at D(2) dopamine receptor [3] and 175 nM on D(3) dopamine receptor [4].
Take `CCCCOc1c(O)ccc2c1CN1CCc3cc(OC)c(O)cc3[C@@H]1C2`: the inhibition at 1.5 h, 10 µM at D(2) dopamine receptor [1] was < 50%. Besides, the inhibition on D(3) dopamine receptor [2] is > 50%.
`CCCCOc1c(O)cc(Br)c2c1CN1CCc3cc(OC)c(O)cc3[C@@H]1C2`: the inhibition on D(1A) dopamine receptor [5] and on D(3) dopamine receptor [2] was > 50% in each case. In addition, the inhibition at 1.5 h, 10 µM on D(2) dopamine receptor [1] is > 50%. Further, the Ki at D(1A) dopamine receptor [6] turned out to be 2.3 nM; on D(2) dopamine receptor [3] it was 107 nM.
As for `CCCOc1c(O)cc(Br)c2c1CN1CCc3cc(OC)c(O)cc3[C@@H]1C2`, the inhibition at D(1A) dopamine receptor [5] and at D(3) dopamine receptor [2] was > 50% in each case. Also, the inhibition at 1.5 h, 10 µM at D(2) dopamine receptor [1] was > 50%. Besides, the Ki at D(1A) dopamine receptor [6] is 2.2 nM; on D(2) dopamine receptor [3], 70 nM.
Turning to `COc1cc2c(cc1O)[C@@H]1Cc3ccc(O)c(OC)c3CN1CC2` [STEPHOLIDINE], the inhibition on D(1A) dopamine receptor [5] and on D(3) dopamine receptor [2] was > 50% throughout. At D(2) dopamine receptor [1], the inhibition at 1.5 h, 10 µM is > 50%.
Take `CCCCCCOc1c(O)cc(Br)c2c1CN1CCc3cc(OC)c(O)cc3[C@@H]1C2`: the inhibition on D(1A) dopamine receptor [5] and at D(3) dopamine receptor [2] was > 50% in each case. The inhibition at 1.5 h, 10 µM at D(2) dopamine receptor [1] was > 50%. Besides, the Ki on D(1A) dopamine receptor [6] stood at 68 nM; at D(2) dopamine receptor [3] it was 731 nM; at D(3) dopamine receptor [4], 3170 nM. In addition, the “Ratio Ki” value in [9] is recorded as >10.
